Measurements published in US20050176655A1, “Novel macrolide derivatives havaing effect of potentiating antifungal activity” (priority 2002, published 2005).

Tests used:
Experiment in all cases: Paper disk method, enhancing action for activities of azole antifungal agents
Format in all cases: cell-based
[1] = tested on: Aspergillus niger ATCC 6275; settings: 50 μg/8 mm disk, 48 hours; for Inhibition activity (inhibition ring mm) A. niger ATCC 6275 GYM / Transparency of the inhibition ring A. niger ATCC 6275 GYM: miconazole 0.1 μg/ml
Experimental: (§1) Test organisms used were Candida albicans ATCC 64548, fluconazole resistant Candida albicans ATCC 64550 and Aspergillus niger ATCC 6275. Candida spp. were cultured in Waksman broth (glucose 2.0%, peptone 0.5%, dry yeast 0.3%, meat extract 0.5%, NaCl 0.5% and CaCO3 0.3%, pH 7.0) at 27° C. for 40 hours, then 0.1% thereof was inoculated on GY agar medium (glucose 1.0%, yeast extract 0.5% and agar 0.8%, pH 6.0). Spore suspension 0.2% of Aspergillus niger ATCC 6275 was inoculated on GY agar medium.
(§2) Azole antifungal agents used were miconazole (Sigma Inc., the U.S.) and fluconazole (ICN Pharmaceuticals, Inc., the U.S.), and were added at concentrations without affecting growth on each test organisms follows.
Aspergillus niger ATCC 6275: miconazole 0.1 μg/ml or fluconazole 10 μg/ml.
(§3) In the above medium, a medium added with miconazole to GY medium (control) is designated as GYM, and a medium added with fluconazole is designated as GYF. Activities were assessed by means of paper disk method (thickness: 8 mm, ADVANTEC MFS INC., Japan). Diameter of inhibition ring is expressed with mm unit after culturing Candida spp. for 24 hours and Aspergillus niger ATCC 6275 for 48 hours. Transparency of the inhibition ring is assessed with 5 degrees of A, B, C, D and E (transparence<A<B<C<D<E<opaque).

[2] = tested on: Candida albicans ATCC 64548; settings: 100 μg/8 mm disk; GYM, miconazole 0.03 μg/ml; 24 hours
Experimental: as §1, §2
Candida albicans ATCC 64548: miconazole 0.03 μg/ml or fluconazole 0.5 μg/ml.
as §3

[3] = tested on: fluconazole resistant Candida albicans ATCC 64550; settings: 100 μg/8 mm disk; GYM, miconazole 0.15 μg/ml; 24 hours
Experimental: as §1, §2
Candida albicans ATCC 64550: miconazole 0.15 μg/ml or fluconazole 30 μg/ml.
as §3

CCC(OC(C)=O)C(C)(O)C1OC(=O)C(C)C(OC2CC(C)(OC)C(OC(C)=O)C(C)O2)C(C)C(OC2OC(C)CC(N(C)C)C2O)C2(C)CC(C)=C(O2)C1C (stereo not shown) [Compound 755, 4″,13-Di-O-acetyl-8,9-Anhydro-pseudo erythromycin A 6,9-hemiketal]
Inhibition activity (inhibition ring mm) A. niger ATCC 6275 GYM [1]: 16 mm
Transparency of the inhibition ring A. niger ATCC 6275 GYM [1]: E (Growth of test organism was inhibited 35% or less.)
Inhibition activity (inhibition ring mm) C. albicans ATCC 64548 GYM [2]: 17 mm
Transparency of the inhibition ring C. albicans ATCC 64548 GYM [2]: D (Growth of test organism was inhibited 35% or more and 55% or less.)
Inhibition activity (inhibition ring mm) C. albicans ATCC 64550 GYM [3]: 10 mm
Transparency of the inhibition ring C. albicans ATCC 64550 GYM [3]: E (Growth of test organism was inhibited 35% or less.)

CCC(OC(C)=O)C(C)(O)C1OC(=O)C(C)C(OC2CC(C)(OC)C(OC(C)=O)C(C)O2)C(C)C(OC2OC(C)CC(NC)C2O)C2(C)CC(C)=C(O2)C1C (stereo not shown) [Compound 756, 4″,13-Di-O-acetyl-de (3′-N-methyl)-8,9-Anhydro-pseudoerythromycin A 6,9-hemiketal]
Inhibition activity (inhibition ring mm) A. niger ATCC 6275 GY ([1]; GY medium (control, no azole)): 10 mm
Transparency of the inhibition ring A. niger ATCC 6275 GY ([1]; GY medium (control, no azole)): E (Growth of test organism was inhibited 35% or less.)
Inhibition activity (inhibition ring mm) A. niger ATCC 6275 GYF ([1]; GYF, fluconazole 10 μg/ml): 14 mm
Transparency of the inhibition ring A. niger ATCC 6275 GYF ([1]; GYF, fluconazole 10 μg/ml): E (Growth of test organism was inhibited 35% or less.)
Inhibition activity (inhibition ring mm) A. niger ATCC 6275 GYM [1]: 14 mm
Transparency of the inhibition ring A. niger ATCC 6275 GYM [1]: E (Growth of test organism was inhibited 35% or less.)
Inhibition activity (inhibition ring mm) C. albicans ATCC 64548 GYM [2]: 15 mm
Transparency of the inhibition ring C. albicans ATCC 64548 GYM [2]: D (Growth of test organism was inhibited 35% or more and 55% or less.)
Inhibition activity (inhibition ring mm) C. albicans ATCC 64550 GYM [3]: 10 mm
Transparency of the inhibition ring C. albicans ATCC 64550 GYM [3]: E (Growth of test organism was inhibited 35% or less.)
